The experiment has as its system NRF2 (NQO1 activity as marker for NRF2 activation), BEAS-2B cells. Description: BEAS-2B NQO1 MTT Assay. Format: cell-based. The conditions noted are these: Homo sapiens, EC50 of NQO1 specific activity induction, 48 hours incubation, read-out: EC50. In a few lines:
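BEAS-2B cells were exposed to compound for 48 h at 37° C, 5% CO2, then lysed. NQO1 activity was measured kinetically by MTT reduction at 570 nm over 30 minutes; EC50 came from 3-parameter fit of Delta OD/min versus log concentration.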

The structures appear in SMILES notation.

What is called EC50 is the concentration needed to bring the measured effect to its halfway point.

For the molecule `CC[C@@H]1CN(Cc2cc([C@H](CC(=O)Nc3cnc(OC)nc3)c3ccc4c(nnn4CC)c3C)ccc2C)S(=O)(=O)c2cccnc2O1` [Example 123, (S)-3-(3-(((R)-4-Ethyl-1,1-dioxido-3,4-dihydro-2H-pyrido[2,3-b][1,4,5]oxathiazepin-2-yl)methyl)-4-methylphenyl)-3-(1-ethyl-4-methyl-1H-benzo[d][1,2,3]triazol-5-yl)-N-(2-methoxypyrimidin-5-yl)propanamide], the EC50 was in the range of 10 to 100 nM.
Regarding `CCOCCOc1ncc(NC(=O)C(C)(C)[C@@H](c2ccc(C)c(CN3C[C@@H](CC)Oc4ncccc4S3(=O)=O)c2)c2ccc3c(nnn3CC)c2C)cn1` [Example 124, (S)—N-(2-(2-Ethoxyethoxy)pyrimidin-5-yl)-3-(3-(((R)-4-ethyl-1,1-dioxido-3,4-dihydro-2H-pyrido[2,3-b][1,4,5]oxathiazepin-2-yl)methyl)-4-methylphenyl)-3-(1-ethyl-4-methyl-1H-benzo[d][1,2,3]triazol-5-yl)-2,2-dimethylpropanamide], the EC50 fell in the range of 1 to 10 nM.
In the case of `CC[C@@H]1CN(Cc2cc([C@H](CC(=O)Nc3cnc(N4CCCCC4)nc3)c3ccc4c(nnn4CC)c3C)ccc2C)S(=O)(=O)c2cccnc2O1` [Example 125, (S)-3-(3-(((R)-4-Ethyl-1,1-dioxido-3,4-dihydro-2H-pyrido[2,3-b][1,4,5]oxathiazepin-2-yl)methyl)-4-methylphenyl)-3-(1-ethyl-4-methyl-1H-benzo[d][1,2,3]triazol-5-yl)-N-(2-(piperidin-1-yl)pyrimidin-5-yl)propanamide] it was 10 to 100 nM; in that of `CC[C@@H]1CN(Cc2cc([C@H](CC(=O)Nc3cnc(NC)nc3)c3ccc4c(nnn4CC)c3C)ccc2C)S(=O)(=O)c2cccnc2O1` [Example 126, (S)-3-(3-(((R)-4-Ethyl-1,1-dioxido-3,4-dihydro-2H-pyrido[2,3-b][1,4,5]oxathiazepin-2-yl)methyl)-4-methylphenyl)-3-(1-ethyl-4-methyl-1H-benzo[d][1,2,3]triazol-5-yl)-N-(2-(methylamino)pyrimidin-5-yl)propanamide], 100 to 1000 nM.
In the case of `CC[C@@H]1CN(Cc2cc([C@H](CC(=O)Nc3cnc(NC(CO)CO)nc3)c3ccc4c(nnn4CC)c3C)ccc2C)S(=O)(=O)c2cccnc2O1` [Example 127, (S)—N-(2-((1,3-Dihydroxypropan-2-yl)amino)pyrimidin-5-yl)-3-(3-(((R)-4-ethyl-1,1-dioxido-3,4-dihydro-2H-pyrido[2,3-b][1,4,5]oxathiazepin-2-yl)methyl)-4-methylphenyl)-3-(1-ethyl-4-methyl-1H-benzo[d][1,2,3]triazol-5-yl)propanamide] it was 1000 to 10000 nM; in that of `CC[C@@H]1CN(Cc2cc([C@@H](c3ccc4c(nnn4CC)c3C)C(C)(C)C(=O)Nc3cnc(NC(CO)CO)nc3)ccc2C)S(=O)(=O)c2cccnc2O1` [Example 128, (S)-N-(2-((1,3-Dihydroxypropan-2-yl)amino)pyrimidin-5-yl)-3-(3-(((R)-4-ethyl-1,1-dioxido-3,4-dihydro-2H-pyrido[2,3-b][1,4,5]oxathiazepin-2-yl)methyl)-4-methylphenyl)-3-(1-ethyl-4-methyl-1H-benzo[d][1,2,3]triazol-5-yl)-2,2-dimethylpropanamide], 100 to 1000 nM; in that of `CC[C@@H]1CN(Cc2cc([C@@H](c3ccc4c(nnn4CC)c3C)C(C)(C)C(=O)Nc3cnc(OCC(N)CO)nc3)ccc2C)S(=O)(=O)c2cccnc2O1` (stereo partly drawn) [Example 129, (3S)-N-(2-(2-Amino-3-hydroxypropoxy)pyri-midin-5-yl)-3-(3-(((R)-4-ethyl-1,1-dioxido-3,4-dihydro-2H-pyrido[2,3-b][1,4,5]oxathiazepin-2-yl)methyl)-4-methylphenyl)-3-(1-ethyl-4-methyl-1H-benzo[d][1,2,3]triazol-5-yl)-2,2-dimethylpropanamide], 100 to 1000 nM.
In the case of `CC[C@@H]1CN(Cc2cc([C@@H](c3ccc4c(nnn4CC)c3C)C(C)(C)C(=O)Nc3cnc(N(C)C)nc3)ccc2C)S(=O)(=O)c2cccnc2O1` [Example 130, (S)-N-(2-(Dimethylamino)pyri-midin-5-yl)-3-(3-(((R)-4-ethyl-1,1-dioxido-3,4-dihydro-2H-pyrido[2,3-b][1,4,5]oxathiazepin-2-yl)methyl)-4-methylphenyl)-3-(1-ethyl-4-methyl-1H-benzo[d][1,2,3]triazol-5-yl)-2,2-dimethylpropanamide] it was 1 to 10 nM; in that of `CC[C@@H]1CN(Cc2cc([C@@H](c3ccc4c(nnn4CC)c3C)C(C)(C)C(=O)Nc3cnc(S(C)(=O)=O)nc3)ccc2C)S(=O)(=O)c2cccnc2O1` [Example 131, (S)-3-(3-(((R)-4-Ethyl-1,1-dioxido-3,4-dihydro-2H-pyrido[2,3-b][1,4,5]oxathiazepin-2-yl)methyl)-4-methylphenyl)-3-(1-ethyl-4-methyl-1H-benzo[d][1,2,3]triazol-5-yl)-2,2-dimethyl-N-(2-(methylsulfonyl)pyrimidin-5-yl)propanamide], 10 to 100 nM; in that of `CC[C@@H]1CN(Cc2cc([C@@H](c3ccc4c(nnn4CC)c3C)C(C)(C)NC(C)=O)ccc2C)S(=O)(=O)c2ccccc2O1` [Example 132, N—((S)-1-(3-(((R)-4-Ethyl-1,1-dioxido-3,4-dihydro-2H-benzo[b][1,4,5]oxathiazepin-2-yl)methyl)-4-methylphenyl)-1-(1-ethyl-4-methyl-1H-benzo[d][1,2,3]triazol-5-yl)-2-methylpropan-2-yl)acetamide], 10 to 100 nM.
With `CC[C@@H]1CN(Cc2cc([C@@H](c3ccc4c(nnn4CC)c3C)C(C)(C)NC(=O)CCCNC(C)=O)ccc2C)S(=O)(=O)c2ccccc2O1` [Example 133, 4-Acetamido-N-((S)-1-(3-(((R)-4-ethyl-1,1-dioxido-3,4-dihydro-2H-benzo[b][1,4,5]oxathiazepin-2-yl)methyl)-4-methylphenyl)-1-(1-ethyl-4-methyl-1H-benzo[d][1,2,3]triazol-5-yl)-2-methylpropan-2-yl)butanamide], the EC50 fell in the range of 1000 to 10000 nM.
The value for `CC[C@@H]1CN(Cc2cc([C@@H](c3ccc4c(nnn4CC)c3C)C(C)(C)NC(=O)C3CCOC3)ccc2C)S(=O)(=O)c2ccccc2O1` (stereo partly drawn) [Example 134, N-((S)-1-(3-(((R)-4-Ethyl-1,1-dioxido-3,4-dihydro-2H-benzo[b][1,4,5]oxathiazepin-2-yl)methyl)-4-methylphenyl)-1-(1-ethyl-4-methyl-1H-benzo[d][1,2,3]triazol-5-yl)-2-methylpropan-2-yl)tetrahydrofuran-3-carboxamide] was 10 to 100 nM; that for `CC[C@@H]1CN(Cc2cc([C@@H](c3ccc4c(nnn4CC)c3C)C(C)(C)NC(=O)C3CCCOC3)ccc2C)S(=O)(=O)c2ccccc2O1` (stereo partly drawn) [Example 135, N-((S)-1-(3-(((R)-4-Ethyl-1,1-dioxido-3,4-dihydro-2H-benzo[b][1,4,5]oxathiazepin-2-yl)methyl)-4-methylphenyl)-1-(1-ethyl-4-methyl-1H-benzo[d][1,2,3]triazol-5-yl)-2-methylpropan-2-yl)tetrahydro-2H-pyran-3-carboxamide] was 10 to 100 nM.
On to `CC[C@@H]1CN(Cc2cc([C@@H](c3ccc4c(nnn4CC)c3C)C(C)(C)NC(=O)c3ccco3)ccc2C)S(=O)(=O)c2ccccc2O1` [Example 136, N-((S)-1-(3-(((R)-4-Ethyl-1,1-dioxido-3,4-dihydro-2H-benzo[b][1,4,5]oxathiazepin-2-yl)methyl)-4-methylphenyl)-1-(1-ethyl-4-methyl-1H-benzo[d][1,2,3]triazol-5-yl)-2-methylpropan-2-yl)furan-2-carboxamide], for which the EC50 is 100 to 1000 nM.
With `CC[C@@H]1CN(Cc2cc([C@@H](c3ccc4c(nnn4CC)c3C)C(C)(C)NC(=O)c3ccoc3)ccc2C)S(=O)(=O)c2ccccc2O1` [Example 137, N-((S)-1-(3-(((R)-4-Ethyl-1,1-dioxido-3,4-dihydro-2H-benzo[b][1,4,5]oxathiazepin-2-yl)methyl)-4-methylphenyl)-1-(1-ethyl-4-methyl-1H-benzo[d][1,2,3]triazol-5-yl)-2-methylpropan-2-yl)furan-3-carboxamide], the EC50 is 10 to 100 nM.
In the case of `CC[C@@H]1CN(Cc2cc([C@@H](c3ccc4c(nnn4CC)c3C)C(C)(C)NC(=O)c3ccns3)ccc2C)S(=O)(=O)c2ccccc2O1` [Example 138, N-((S)-1-(3-(((R)-4-Ethyl-1,1-dioxido-3,4-dihydro-2H-benzo[b][1,4,5]oxathiazepin-2-yl)methyl)-4-methylphenyl)-1-(1-ethyl-4-methyl-1H-benzo[d][1,2,3]triazol-5-yl)-2-methylpropan-2-yl)isothiazole-5-carboxamide] it was 10 to 100 nM; in that of `CC[C@@H]1CN(Cc2cc([C@@H](c3ccc4c(nnn4CC)c3C)C(C)(C)NC(=O)c3ccc(=O)n(C)c3)ccc2C)S(=O)(=O)c2ccccc2O1` [Example 139, N-((S)-1-(3-(((R)-4-Ethyl-1,1-dioxido-3,4-dihydro-2H-benzo[b][1,4,5]oxathiazepin-2-yl)methyl)-4-methylphenyl)-1-(1-ethyl-4-methyl-1H-benzo[d][1,2,3]triazol-5-yl)-2-methylpropan-2-yl)-1-methyl-6-oxo-1,6-dihydropyridine-3-carboxamide], 10 to 100 nM.
In the case of `CC[C@@H]1CN(Cc2cc([C@@H](c3ccc4c(nnn4CC)c3C)C(C)(C)NC(=O)c3cccn(C)c3=O)ccc2C)S(=O)(=O)c2ccccc2O1` [Example 140, N-((S)-1-(3-(((R)-4-Ethyl-1,1-dioxido-3,4-dihydro-2H-benzo[b][1,4,5]oxathiazepin-2-yl)methyl)-4-methylphenyl)-1-(1-ethyl-4-methyl-1H-benzo[d][1,2,3]triazol-5-yl)-2-methylpropan-2-yl)-1-methyl-2-oxo-1,2-dihydropyridine-3-carboxamide] it was 10 to 100 nM.
As to `CC[C@@H]1CN(Cc2cc([C@@H](c3ccc4c(nnn4CC)c3C)C(C)(C)NC(=O)c3ccn(C)c(=O)c3)ccc2C)S(=O)(=O)c2ccccc2O1` [Example 141, N-((S)-1-(3-(((R)-4-Ethyl-1,1-dioxido-3,4-dihydro-2H-benzo[b][1,4,5]oxathiazepin-2-yl)methyl)-4-methylphenyl)-1-(1-ethyl-4-methyl-1H-benzo[d][1,2,3]triazol-5-yl)-2-methylpropan-2-yl)-1-methyl-2-oxo-1,2-dihydropyridine-4-carboxamide], the EC50 lay within 10 to 100 nM.

The values above are taken from patent US11078216B2, “Bisaryl amides as NRF2 activators” (GLAXOSMITHKLINE INTELLECTUAL PROPERTY DEVELOPMENT LIMITED, priority 2016, dated 2021).
